Experimental data taken from patent publication US20190389882A1, “INHIBITORS OF BETA SECRETASE” (Janssen Pharmaceutica NV, priority 2017, published 2019).

How the values were obtained:
β-secretase I (BACE1) = β-secretase I (BACE1) (Homo sapiens, UniProt P56817); test: Automated (CyclOps) biochemical assay BACE1
β-secretase II (BACE2) = molecular target: T1, β-secretase II (BACE2) (Homo sapiens, UniProt Q9Y5Z0); test: Automated (CyclOps) biochemical assay BACE2
T1 sequence (Q9Y5Z0 63-518): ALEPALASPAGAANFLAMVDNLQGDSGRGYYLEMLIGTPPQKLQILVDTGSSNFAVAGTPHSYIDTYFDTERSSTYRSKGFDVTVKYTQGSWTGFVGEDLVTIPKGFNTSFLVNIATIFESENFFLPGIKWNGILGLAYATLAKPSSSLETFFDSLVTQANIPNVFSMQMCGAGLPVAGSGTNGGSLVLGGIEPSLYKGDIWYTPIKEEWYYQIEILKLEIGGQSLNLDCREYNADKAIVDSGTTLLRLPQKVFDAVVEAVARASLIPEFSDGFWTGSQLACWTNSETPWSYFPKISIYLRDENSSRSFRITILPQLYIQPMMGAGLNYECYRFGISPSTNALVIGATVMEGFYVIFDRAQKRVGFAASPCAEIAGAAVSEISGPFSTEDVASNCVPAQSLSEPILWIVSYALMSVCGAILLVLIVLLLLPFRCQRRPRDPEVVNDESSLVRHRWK

Sequence of β-secretase I (BACE1) (P56817 46-501): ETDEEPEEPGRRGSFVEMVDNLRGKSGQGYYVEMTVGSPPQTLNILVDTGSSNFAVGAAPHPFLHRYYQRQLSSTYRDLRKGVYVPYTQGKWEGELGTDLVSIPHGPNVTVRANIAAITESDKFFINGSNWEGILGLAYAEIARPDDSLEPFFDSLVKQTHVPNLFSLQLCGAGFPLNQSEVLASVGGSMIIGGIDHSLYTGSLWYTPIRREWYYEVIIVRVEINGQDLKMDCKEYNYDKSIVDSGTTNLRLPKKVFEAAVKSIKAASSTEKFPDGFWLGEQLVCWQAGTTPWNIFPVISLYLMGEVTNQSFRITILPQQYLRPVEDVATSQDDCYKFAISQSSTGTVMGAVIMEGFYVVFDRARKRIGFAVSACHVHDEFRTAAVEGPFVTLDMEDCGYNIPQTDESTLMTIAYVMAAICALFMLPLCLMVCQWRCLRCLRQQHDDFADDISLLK

COc1ncccc1C(=O)NCc1cnc(OC)c2c1C[C@H]1CSC(N)=N[C@@]1(c1ccc(F)cc1F)C2 [Compound 47]
IC50 (β-secretase I (BACE1)): 25.7 nM
IC50 (β-secretase II (BACE2)): 209 nM

COc1ncc(CNC(=O)c2ccncn2)c2c1C[C@]1(c3ccc(F)cc3F)N=C(N)SC[C@@H]1C2 [Compound 50]
IC50 (β-secretase I (BACE1)): 115 nM
IC50 (β-secretase II (BACE2)): 309 nM

COc1ncc(CNC(=O)c2cnoc2C(C)C)c2c1C[C@]1(c3ccc(F)cc3F)N=C(N)SC[C@@H]1C2 [Compound 42]
IC50 (β-secretase I (BACE1)): 74.1 nM
IC50 (β-secretase II (BACE2)): 138 nM

COc1ncc(CNC(=O)c2ccncc2C(F)(F)F)c2c1C[C@]1(c3ccc(F)cc3F)N=C(N)SC[C@@H]1C2 [Compound 35]
IC50 (β-secretase I (BACE1)): 138 nM
IC50 (β-secretase II (BACE2)): 724 nM

COc1ncc(CNC(=O)c2ccc(C#N)cc2)c2c1C[C@]1(c3ccc(F)cc3F)N=C(N)SC[C@@H]1C2 [Compound 33]
IC50 (β-secretase I (BACE1)): 57.5 nM
IC50 (β-secretase II (BACE2)): 178 nM

COc1ncc(CNC(=O)c2ncc(F)cc2F)c2c1C[C@]1(c3ccc(F)cc3F)N=C(N)SC[C@@H]1C2 [Compound 37]
IC50 (β-secretase I (BACE1)): 25.1 nM
IC50 (β-secretase II (BACE2)): 70.8 nM

COc1ncc(CNC(=O)c2cccnc2F)c2c1C[C@]1(c3ccc(F)cc3F)N=C(N)SC[C@@H]1C2 [Compound 43]
IC50 (β-secretase I (BACE1)): 20.9 nM
IC50 (β-secretase II (BACE2)): 97.7 nM

COc1cc(C(=O)NCc2cnc(OC)c3c2C[C@H]2CSC(N)=N[C@@]2(c2ccc(F)cc2F)C3)c(OC)nn1 [Compound 41]
IC50 (β-secretase I (BACE1)): 79.4 nM
IC50 (β-secretase II (BACE2)): 513 nM

COc1cccc(C(=O)NCc2cnc(OC)c3c2C[C@H]2CSC(N)=N[C@@]2(c2ccc(F)cc2F)C3)n1 [Compound 39]
IC50 (β-secretase I (BACE1)): 182 nM
IC50 (β-secretase II (BACE2)): 389 nM

COc1ncc(C(=O)N2CCOC(c3cccc(C)c3)C2)c2c1C[C@]1(c3ccc(F)cc3F)N=C(N)SC[C@@H]1C2 (stereo partly shown) [Compound 13]
IC50 (β-secretase I (BACE1)): 69.2 nM
IC50 (β-secretase II (BACE2)): 309 nM

COc1ncc(C(=O)N2C[C@H]3CC[C@@H](C2)O3)c2c1C[C@]1(c3ccc(F)cc3F)N=C(N)SC[C@@H]1C2 [Compound 19]
IC50 (β-secretase I (BACE1)): 18.6 nM
IC50 (β-secretase II (BACE2)): 117 nM

COc1ncc(C(=O)Nc2ccncc2)c2c1C[C@]1(c3ccc(F)cc3F)N=C(N)SC[C@@H]1C2 [Compound 16]
IC50 (β-secretase I (BACE1)): 53.7 nM
IC50 (β-secretase II (BACE2)): 138 nM

COc1ncc(CNC(=O)c2ccncc2F)c2c1C[C@]1(c3ccc(F)cc3F)N=C(N)SC[C@@H]1C2 [Compound 38]
IC50 (β-secretase I (BACE1)): 19.1 nM
IC50 (β-secretase II (BACE2)): 115 nM

COc1ncc(C(=O)N2CCN(c3cccnc3)CC2)c2c1C[C@]1(c3ccc(F)cc3F)N=C(N)SC[C@@H]1C2 [Compound 5]
IC50 (β-secretase I (BACE1)): 145 nM
IC50 (β-secretase II (BACE2)): 324 nM

COCC1CCN(C(=O)c2cnc(OC)c3c2C[C@H]2CSC(N)=N[C@@]2(c2ccc(F)cc2F)C3)CC1 [Compound 11]
IC50 (β-secretase I (BACE1)): 155 nM
IC50 (β-secretase II (BACE2)): 776 nM

COc1ncc(C(=O)N2CCN(C(=O)C3CC3)CC2)c2c1C[C@]1(c3ccc(F)cc3F)N=C(N)SC[C@@H]1C2 [Compound 10]
IC50 (β-secretase I (BACE1)): 490 nM
IC50 (β-secretase II (BACE2)): 1450 nM

CCOc1ncccc1C(=O)NCc1cnc(OC)c2c1C[C@H]1CSC(N)=N[C@@]1(c1ccc(F)cc1F)C2 [Compound 46]
IC50 (β-secretase I (BACE1)): 36.3 nM
IC50 (β-secretase II (BACE2)): 407 nM

COc1ncc(C(=O)N2CCC(Oc3ccc(F)cc3)CC2)c2c1C[C@]1(c3ccc(F)cc3F)N=C(N)SC[C@@H]1C2 [Compound 14]
IC50 (β-secretase I (BACE1)): 11 nM
IC50 (β-secretase II (BACE2)): 38.9 nM

COc1ncc(C(=O)N2Cc3cccnc3C2)c2c1C[C@]1(c3ccc(F)cc3F)N=C(N)SC[C@@H]1C2 [Compound 8]
IC50 (β-secretase I (BACE1)): 1000 nM
IC50 (β-secretase II (BACE2)): 3550 nM

COc1ncc(C(=O)N2CC(C)OC(C)C2)c2c1C[C@]1(c3ccc(F)cc3F)N=C(N)SC[C@@H]1C2 (stereo partly shown) [Compound 9]
IC50 (β-secretase I (BACE1)): 363 nM
IC50 (β-secretase II (BACE2)): 2140 nM

COc1ncc(CNC(=O)c2cccnc2C)c2c1C[C@]1(c3ccc(F)cc3F)N=C(N)SC[C@@H]1C2 [Compound 40]
IC50 (β-secretase I (BACE1)): 112 nM
IC50 (β-secretase II (BACE2)): 186 nM

COc1ncc(C(=O)N2CCN(C(C)=O)CC2)c2c1C[C@]1(c3ccc(F)cc3F)N=C(N)SC[C@@H]1C2 [Compound 27]
IC50 (β-secretase I (BACE1)): 955 nM
IC50 (β-secretase II (BACE2)): 4170 nM

COc1ncc(CNC(=O)c2cccnc2)c2c1C[C@]1(c3ccc(F)cc3F)N=C(N)SC[C@@H]1C2 [Compound 45]
IC50 (β-secretase I (BACE1)): 8.51 nM
IC50 (β-secretase II (BACE2)): 29.5 nM

COc1cccc(C2CCN(C(=O)c3cnc(OC)c4c3C[C@H]3CSC(N)=N[C@@]3(c3ccc(F)cc3F)C4)C2)c1 (single isomer, unassigned) [Compound 25]
IC50 (β-secretase I (BACE1)): 14.8 nM
IC50 (β-secretase II (BACE2)): 88.1 nM

COc1ncc(C(=O)N(C)c2ccncc2)c2c1C[C@]1(c3ccc(F)cc3F)N=C(N)SC[C@@H]1C2 [Compound 21]
IC50 (β-secretase I (BACE1)): 112 nM
IC50 (β-secretase II (BACE2)): 324 nM

COc1ncc(C(=O)N2CCCC(OC)C2)c2c1C[C@]1(c3ccc(F)cc3F)N=C(N)SC[C@@H]1C2 (stereo partly shown) [Compound 23]
IC50 (β-secretase I (BACE1)): 61.7 nM
IC50 (β-secretase II (BACE2)): 324 nM

COc1ncc(C(=O)N2CCC(C#N)C2)c2c1C[C@]1(c3ccc(F)cc3F)N=C(N)SC[C@@H]1C2 (stereo partly shown) [Compound 6]
IC50 (β-secretase I (BACE1)): 56.2 nM
IC50 (β-secretase II (BACE2)): 282 nM

COc1cccc(N2CCN(C(=O)c3cnc(OC)c4c3C[C@H]3CSC(N)=N[C@@]3(c3ccc(F)cc3F)C4)CC2)c1 [Compound 24]
IC50 (β-secretase I (BACE1)): 61.7 nM
IC50 (β-secretase II (BACE2)): 63.1 nM

COc1ncc(C(=O)N2CCN(c3ccncc3)CC2)c2c1C[C@]1(c3ccc(F)cc3F)N=C(N)SC[C@@H]1C2 [Compound 17]
IC50 (β-secretase I (BACE1)): 158 nM
IC50 (β-secretase II (BACE2)): 2370 nM

COc1ccccc1C(=O)NCc1cnc(OC)c2c1C[C@H]1CSC(N)=N[C@@]1(c1ccc(F)cc1F)C2 [Compound 34]
IC50 (β-secretase I (BACE1)): 219 nM
IC50 (β-secretase II (BACE2)): 537 nM

COc1ncc(CNC(=O)CN2CCOCC2)c2c1C[C@]1(c3ccc(F)cc3F)N=C(N)SC[C@@H]1C2 [Compound 44]
IC50 (β-secretase I (BACE1)): 41.7 nM
IC50 (β-secretase II (BACE2)): 79.4 nM

COc1ncc(C(=O)N2CCC(c3ccncc3)C2)c2c1C[C@]1(c3ccc(F)cc3F)N=C(N)SC[C@@H]1C2 (stereo partly shown) [Compound 26]
IC50 (β-secretase I (BACE1)): 15.7 nM
IC50 (β-secretase II (BACE2)): 507 nM

COc1ncc(C(=O)N2CCS(=O)(=O)CC2)c2c1C[C@]1(c3ccc(F)cc3F)N=C(N)SC[C@@H]1C2 [Compound 12]
IC50 (β-secretase I (BACE1)): 501 nM
IC50 (β-secretase II (BACE2)): 832 nM

COc1cc(OC)nc(C(=O)NCc2cnc(OC)c3c2C[C@H]2CSC(N)=N[C@@]2(c2ccc(F)cc2F)C3)n1 [Compound 49]
IC50 (β-secretase I (BACE1)): 34.7 nM
IC50 (β-secretase II (BACE2)): 178 nM

COc1ncc(C(=O)N2CCCCC2)c2c1C[C@]1(c3ccc(F)cc3F)N=C(N)SC[C@@H]1C2 [Compound 20]
IC50 (β-secretase I (BACE1)): 50.1 nM
IC50 (β-secretase II (BACE2)): 195 nM

COc1ncc(C(=O)N2CCN(c3nccs3)CC2)c2c1C[C@]1(c3ccc(F)cc3F)N=C(N)SC[C@@H]1C2 [Compound 7]
IC50 (β-secretase I (BACE1)): 324 nM
IC50 (β-secretase II (BACE2)): 871 nM

COc1ncc(CNC(=O)c2cnc(C(F)(F)F)nc2)c2c1C[C@]1(c3ccc(F)cc3F)N=C(N)SC[C@@H]1C2 [Compound 36]
IC50 (β-secretase I (BACE1)): 21.9 nM
IC50 (β-secretase II (BACE2)): 36.3 nM

COc1ncc(C(=O)N(C)Cc2ccncc2)c2c1C[C@]1(c3ccc(F)cc3F)N=C(N)SC[C@@H]1C2 [Compound 18]
IC50 (β-secretase I (BACE1)): 8.51 nM
IC50 (β-secretase II (BACE2)): 30.2 nM
